≈ marks a conversion by molar mass, not a printed value. Marks after values point to notes of the source that are not given here.
Legend:
Format in all cases: cell-based
T. oshimai = assay: Minimum inhibitory concentration assay (Thermus); details: pure peptide, mean of triplicate assays
Protocol: (§1) Minimum inhibitory concentration (MIC) determinations for gram negative Thermus strains were carried out in triplicate in round bottom microtitre plates (Corning). 96 well microtitre plates were pre-treated with bovine serum albumin (BSA) prior to addition of the peptides. Briefly, to each well of the microtire plates 200 µl of d.H2O (filtered with 0.2 µm filter) containing 1% (w/w) BSA was added and incubated at 37°C for 30 mins. The wells were washed with 200 µl of IX phosphate buffered saline (PBS) for 2 times after removing 1% BSA d.H2O. 100 µl of growth media, i.e., Castenholz, was added to each well. […] Target strains were grown overnight as per conditions mention above, 0.5 ml of overnight was subcultured in to 10 mls of fresh Castenholz medium and allowed to grow to an OD600 of ∼0.5. 20µl of this subculture was added to 980µl of media, 150µl of this dilution added to 14.85 ml of growth media. 100µl of this dilution added to each well resulting in a final inoculum of ∼10^5 cfu/ml in 200µl. The plates were incubated at 55° C for 3 days and the MIC was determined as the lowest concentration at which no growth was visible.
(§2) The bioactivity of cell-free supernatant can be influenced by altered diffusion rates, solubility, production or specific activity. To determine to what extent, if any, the bioactivity noted above is due to increased specific activity, nisin A (control) and the derivatives were purified and their molecular weights confirmed by MALDI TOF mass spectrometry (Table: 6) (Figure: 4). These peptides were used to perform minimum inhibitory concentration assays against six Thermus strains, i.e., T. thermophilus HB27, T. scotoductus SE-1, T. rehai, T. oshimai, T. aquaticus and T. brockianus.

T. rehai = assay: Minimum inhibitory concentration assay (Thermus); details: pure peptide, mean of triplicate assays
Protocol: as §1, §2

T. aquaticus = assay: Minimum inhibitory concentration assay (Thermus); details: for MIC: pure peptide, mean of triplicate assays
Protocol: as §1, §2

T. brockianus = assay: Minimum inhibitory concentration assay (Thermus); details: pure peptide, mean of triplicate assays
Protocol: as §1, §2

T. thermophilus HB27 = assay: Minimum inhibitory concentration assay (Thermus); details: pure peptide, mean of triplicate assays
Protocol: as §1, §2

T. scotoductus SE-1 = assay: Minimum inhibitory concentration assay (Thermus); details: pure peptide, mean of triplicate assays
Protocol: as §1, §2

[1] = system: Thermus thermophilus HB27; assay: Agar diffusion assay with cell free supernatant of producing strains; details: zone diameter relative to Nisin A wild type (100)
Protocol: (§3) Agar diffusion assays were carried out in triplicate using nisin producing and indicator (T. thermophilus HB27 and T. scotoductus Se-1) strains. Both the producer and indicator strains were cultured as per conditions described above. One ml of overnight culture of indicators were added to 50ml of molten Castenholz agar, briefly swirled and poured. Wells were made using sterile glass pipette. To generate cell free supernatant from nisin producing strains, 10 mls of overnight cultures of the strains were centrifuged at 950g for 20 mins. The cell free supernatant was transferred to a sterile tube. 50 µl of cell free supernatant was added to wells described above. Plates were incubated at 55°C for 3 days and the zone of clearance measured.
(§4) The cell free supernatant of nisin A and nisin variant producing L. lactis was used to determine the bioactivity of these lantibiotics against T. thermophilus HB27 and T. scotoductus SE-1 using agar diffusion assays, with the zone of clearance representing the bioactivity of the producing strain (i.e., representing a combination of the amount of the peptide produced and the specific activity of that peptide). […] Among the variants tested were those with altered N-terminal domains. The N-terminal domain of nisin is important for binding with the pyrophosphate moiety of lipid II to mediate pore formation in the cell membrane. Lysine (K) at position 12, which serves as a small flexible region between ring B and C, and is one of among the 5 positively charged residues (K12, K22, K34, H27, […]) of nisin A that contributes to its cationic nature and its attraction to the cell envelope.

Thermus scotoductus SE-1 = assay: as above; details: zone diameter relative to Nisin A wild type (100)
Protocol: as §3, §4

Row | Compound | MIC (T. oshimai) [µM] | MIC (T. rehai) [µM] | MIC (T. aquaticus) [µM] | MIC (T. brockianus) [µM] | MIC (T. thermophilus HB27) [µM] | MIC (T. scotoductus SE-1) [µM] | % difference [1] | % of wild type (Thermus scotoductus SE-1) | fold better activity than nisin A (T. aquaticus) [fold]
1 | C=C(NC(=O)[C@@H](NC(=O)[C@H](Cc1c[nH]cn1)NC(=O)[C@@H](NC(=O)[C@H](CO)NC(=O)[C@@H]1CS[C@@H](C)[C@H]2NC(=O)[C@H](C)NC(=O)[C@H](NC(=O)[C@H](CCCCN)NC(=O)[C@H](CCSC)NC(=O)[C@H](CO)NC(=O)[C@@H]3CS[C@@H](C)[C@@H](NC(=O)[C@H](CCCCN)NC(=O)[C@@H]4CS[C@@H](C)[C@@H](NC(=O)[C@@H]5CSC[C@@H](NC(=O)/C(=C/C)NC(=O)[C@@H](N)[C@@H](C)CC)C(=O)N[C@@H]([C@@H](C)CC)C(=O)NC(=C)C(=O)N[C@@H](CC(C)C)C(=O)N5)C(=O)N5CCC[C@H]5C(=O)NCC(=O)N4)C(=O)NCC(=O)N[C@@H](C)C(=O)N[C@@H](CC(C)C)C(=O)N[C@@H](CCSC)C(=O)NCC(=O)N3)[C@H](C)SC[C@H](NC2=O)C(=O)N[C@@H](Cc2c[nH]cn2)C(=O)N1)[C@@H](C)CC)C(C)C)C(=O)N[C@@H](CCCCN)C(=O)O [N20S] | 0.000975 (≈ 0.00324 µg/mL) | 0.00195 (≈ 0.00649 µg/mL) | 0.0078 (≈ 0.026 µg/mL) | 0.0156 (≈ 0.0519 µg/mL) | 0.0039 (≈ 0.013 µg/mL) | 0.3125 (≈ 1.04 µg/mL) | 119% | 112% | 
2 | C=C(NC(=O)[C@@H](NC(=O)[C@H](Cc1c[nH]cn1)NC(=O)[C@@H](NC(=O)[C@H](CO)NC(=O)[C@@H]1CS[C@@H](C)[C@H]2NC(=O)[C@H](C)NC(=O)[C@H](NC(=O)[C@H](CCC(N)=O)NC(=O)[C@H](C)NC(=O)[C@@H]3CCCN3C(=O)[C@@H]3CS[C@@H](C)[C@@H](NC(=O)[C@H](CCCCN)NC(=O)[C@@H]4CS[C@@H](C)[C@@H](NC(=O)[C@@H]5CSC[C@@H](NC(=O)/C(=C/C)NC(=O)[C@@H](N)[C@@H](C)CC)C(=O)N[C@@H]([C@@H](C)CC)C(=O)NC(=C)C(=O)N[C@@H](CC(C)C)C(=O)N5)C(=O)N5CCC[C@H]5C(=O)NCC(=O)N4)C(=O)NCC(=O)N[C@@H](C)C(=O)N[C@@H](CC(C)C)C(=O)N[C@@H](CCSC)C(=O)NCC(=O)N3)[C@H](C)SC[C@H](NC2=O)C(=O)N[C@@H](Cc2c[nH]cn2)C(=O)N1)[C@@H](C)CC)C(C)C)C(=O)N[C@@H](CCCCN)C(=O)O [PAQ] | 0.0039 (≈ 0.0128 µg/mL) | 0.0156 (≈ 0.0511 µg/mL) | 0.0156 (≈ 0.0511 µg/mL) | 0.0312 (≈ 0.102 µg/mL) | 0.0078 (≈ 0.0256 µg/mL) | 0.0625 (≈ 0.205 µg/mL) | 138* (0.02) % |  | 
3 | C=C(NC(=O)[C@@H](NC(=O)[C@H](Cc1c[nH]cn1)NC(=O)[C@@H](NC(=O)[C@H](CO)NC(=O)[C@@H]1CS[C@@H](C)[C@H]2NC(=O)[C@H](C)NC(=O)[C@H](NC(=O)[C@H](C)NC(=O)CNC(=O)[C@@H]3CCCN3C(=O)[C@@H]3CS[C@@H](C)[C@@H](NC(=O)[C@H](CCCCN)NC(=O)[C@@H]4CS[C@@H](C)[C@@H](NC(=O)[C@@H]5CSC[C@@H](NC(=O)/C(=C/C)NC(=O)[C@@H](N)[C@@H](C)CC)C(=O)N[C@@H]([C@@H](C)CC)C(=O)NC(=C)C(=O)N[C@@H](CC(C)C)C(=O)N5)C(=O)N5CCC[C@H]5C(=O)NCC(=O)N4)C(=O)NCC(=O)N[C@@H](C)C(=O)N[C@@H](CC(C)C)C(=O)N[C@@H](CCSC)C(=O)NCC(=O)N3)[C@H](C)SC[C@H](NC2=O)C(=O)N[C@@H](Cc2c[nH]cn2)C(=O)N1)[C@@H](C)CC)C(C)C)C(=O)N[C@@H](CCCCN)C(=O)O [PGA] | 0.0078 (≈ 0.025 µg/mL) | 0.0156 (≈ 0.05 µg/mL) | 0.0312 (≈ 0.1 µg/mL) | 0.0625 (≈ 0.2 µg/mL) | 0.0156 (≈ 0.05 µg/mL) | 0.125 (≈ 0.401 µg/mL) | 113% |  | 
4 | C=C(NC(=O)[C@@H](NC(=O)[C@H](Cc1c[nH]cn1)NC(=O)[C@@H](NC(=O)[C@H](CO)NC(=O)[C@@H]1CS[C@@H](C)[C@H]2NC(=O)[C@H](C)NC(=O)[C@H](NC(=O)[C@H](CCCCN)NC(=O)[C@H](CCSC)NC(=O)[C@H](CC(N)=O)NC(=O)[C@@H]3CS[C@@H](C)[C@@H](NC(=O)[C@H](CC(C)C)NC(=O)[C@@H]4CS[C@@H](C)[C@@H](NC(=O)[C@@H]5CSC[C@@H](NC(=O)/C(=C/C)NC(=O)[C@@H](N)[C@@H](C)CC)C(=O)N[C@@H]([C@@H](C)CC)C(=O)NC(=C)C(=O)N[C@@H](CC(C)C)C(=O)N5)C(=O)N5CCC[C@H]5C(=O)NCC(=O)N4)C(=O)NCC(=O)N[C@@H](C)C(=O)N[C@@H](CC(C)C)C(=O)N[C@@H](CCSC)C(=O)NCC(=O)N3)[C@H](C)SC[C@H](NC2=O)C(=O)N[C@@H](Cc2c[nH]cn2)C(=O)N1)[C@@H](C)CC)C(C)C)C(=O)N[C@@H](CCCCN)C(=O)O [K12L] | 0.0078 (≈ 0.026 µg/mL) | 0.0078 (≈ 0.026 µg/mL) | 0.0078 (≈ 0.026 µg/mL) | 0.0312 (≈ 0.104 µg/mL) | 0.0156 (≈ 0.0521 µg/mL) | 0.0625 (≈ 0.209 µg/mL) | 120% |  | 2
5 | C=C(NC(=O)[C@@H](NC(=O)[C@H](Cc1c[nH]cn1)NC(=O)[C@@H](NC(=O)[C@H](CO)NC(=O)[C@@H]1CS[C@@H](C)[C@H]2NC(=O)[C@H](C)NC(=O)[C@H](NC(=O)[C@H](CCCCN)NC(=O)[C@H](C)NC(=O)[C@H](CC(N)=O)NC(=O)[C@@H]3CS[C@@H](C)[C@@H](NC(=O)[C@H](CCCCN)NC(=O)[C@@H]4CS[C@@H](C)[C@@H](NC(=O)[C@@H]5CSC[C@@H](NC(=O)/C(=C/C)NC(=O)[C@@H](N)[C@@H](C)CC)C(=O)N[C@@H]([C@@H](C)CC)C(=O)NC(=C)C(=O)N[C@@H](CC(C)C)C(=O)N5)C(=O)N5CCC[C@H]5C(=O)NCC(=O)N4)C(=O)NCC(=O)N[C@@H](C)C(=O)N[C@@H](CC(C)C)C(=O)N[C@@H](CCSC)C(=O)NCC(=O)N3)[C@H](C)SC[C@H](NC2=O)C(=O)N[C@@H](Cc2c[nH]cn2)C(=O)N1)[C@@H](C)CC)C(C)C)C(=O)N[C@@H](CCCCN)C(=O)O [M21A] | 0.0078 (≈ 0.0257 µg/mL) | 0.0312 (≈ 0.103 µg/mL) | 0.0078 (≈ 0.0257 µg/mL) | 0.0625 (≈ 0.206 µg/mL) | 0.0312 (≈ 0.103 µg/mL) | 0.0312 (≈ 0.103 µg/mL) | 158* (0.001) % |  | 
6 | C=C(NC(=O)[C@@H](NC(=O)[C@H](Cc1c[nH]cn1)NC(=O)[C@@H](NC(=O)[C@H](CO)NC(=O)[C@@H]1CS[C@@H](C)[C@H]2NC(=O)[C@H](C)NC(=O)[C@H](NC(=O)[C@H](CCCCN)NC(=O)[C@H](C)NC(=O)[C@H](C)NC(=O)[C@@H]3CS[C@@H](C)[C@@H](NC(=O)[C@H](CCCCN)NC(=O)[C@@H]4CS[C@@H](C)[C@@H](NC(=O)[C@@H]5CSC[C@@H](NC(=O)/C(=C/C)NC(=O)[C@@H](N)[C@@H](C)CC)C(=O)N[C@@H]([C@@H](C)CC)C(=O)NC(=C)C(=O)N[C@@H](CC(C)C)C(=O)N5)C(=O)N5CCC[C@H]5C(=O)NCC(=O)N4)C(=O)NCC(=O)N[C@@H](C)C(=O)N[C@@H](CC(C)C)C(=O)N[C@@H](CCSC)C(=O)NCC(=O)N3)[C@H](C)SC[C@H](NC2=O)C(=O)N[C@@H](Cc2c[nH]cn2)C(=O)N1)[C@@H](C)CC)C(C)C)C(=O)N[C@@H](CCCCN)C(=O)O [AAK] | 0.0156 (≈ 0.0507 µg/mL) | 0.0156 (≈ 0.0507 µg/mL) | 0.0625 (≈ 0.203 µg/mL) | 0.0156 (≈ 0.0507 µg/mL) | 0.0312 (≈ 0.101 µg/mL) | 0.0625 (≈ 0.203 µg/mL) |  | 132* (0.004) % | 
